One data set deals with KPC K8484 tumors. Put plainly: KPC K8484 allografts treated with BYL-719 alone or combined: tumor response and survival. Format: in vivo, mice.
In the next data set the test system is tumor models. Nature of the data set: drug efficacy of PI3K pathway agents with modulation of glucose metabolism in murine tumor models. The data set is classed as in vivo, mice.
The test system of the next data set is KPC allografts. Put plainly: KPC allografts treated with BKM120 and OSI-906. To be noted: BKM120 combined with OSI-906, vs either drug alone. Format: in vivo, mice.
Data set [1] relates to MLL-AF9 driven Acute Myeloid Leukemia. Nature of the data set: syngeneic model of AML treated with BKM120 and ketogenic diet. To be noted: BKM120 with ketogenic diet started before or with BKM120. Format: in vivo, mice. Here is the method: For AML studies, 10-12 weeks old male C57BL/6J mice were used for MLL-AF9 Ds-Red AML study (Approved protocol AC-AAAQ5405). For pre-treatment study with MLL-AF9 Ds-Red cells, keto and Keto/BKM group mice were given a ketogenic diet for 10 days prior to injection with MLL-AF9 Ds-Red cells (2×10^5 per mouse in 200 ul) via lateral tail vein. The day after iv injection, the mice were given 0.5% carboxymethyl cellulose (CMC) as vehicle control or BKM120 (37.5 mg/kg) by oral gavage for two weeks (5 out of 7 days). The mice were euthanized after two-week treatment to check the bone marrow for AML progress. The tumor progress was also monitored via IVIS spectrum machine.
For co-current treatment studies with MLL-AF9 Ds-Red cells, the mice were injected with MLL-AF9 Ds-Red cells (2×10^5 per mouse in 200 ul) via lateral tail vein. The day after iv injection, the mice were given vehicle or BKM120 (37.5 mg/kg) by oral gavage for two weeks. The Keto or Keto/BKM group were changed to a ketogenic diet on the same day. The mice were euthanized after two-week treatment to check the bone marrow for AML progress.
To check if Keto/BKM treatment affects the AML engraftment, Keto and Keto/BKM group mice were given a ketogenic diet for 10 days, then treated with vehicle or BKM120 by oral gavage for two weeks. […]

The target of a further data set is SGLT-2 (Homo sapiens (Human), UniProt P31639). To be noted: read-out: IC50 of primary target; from Selleck Chem website; cited from earlier work.
Data set [2] relates to syngeneic K8484 KPC allografted tumors. Nature of the data set: glucose/insulin feedback after single dose of BKM120 in mice with KPC allografts. The data set is classed as in vivo. To be noted: pretreatment before a single treatment with BKM120; for insulin released in response to BKM120 (c-peptide): c-peptide after 3 hours; for growth signaling through mTORC1 in the tumor (pS6): tumors harvested at 90 minutes.

In the next data set the test system is IGF1R/INSR. To be noted: from Selleck Chem website; read-out: IC50 of primary target; cited from earlier work.
In data set [3] the test system is PIK3CA+MYC mutant murine breast tumor allografts, ES-278. Put plainly: ES-278 breast tumor allografts with or without keto diet. The data set is classed as in vivo, mice. To be noted: combined with ketogenic diet.
Description: For solid tumor studies, Nude (genotype) and C57/BL6 mice were purchased at 8 weeks of age from Jackson laboratories (Bar Harbor, ME).
A further data set deals with AKT1/2/3. To be noted: from Selleck Chem website; read-out: IC50 of primary target; cited from earlier work.
Data set [4] relates to MDA-MB-468 breast cancer cells. Put plainly: proliferation in minimal growth media with BKM120 and insulin. Format: cell-based, Human. To be noted: insulin 10 ng/ml.
The next data set deals with KPC cells. Nature of the data set: signaling and proliferation of KPC cells with PI3K inhibitor and insulin. Format: cell-based, Mouse. Here is the method:
To test whether or not these spikes in insulin were stimulating PI3K signaling in the context of PI3K inhibition, KPC cells were treated in vitro with the PI3K inhibitors in the presence or absence of 10 ng/ml insulin, the level observed in the mice within 15-30 min after drug administration (FIG. 1D).
For signaling assays, cells were washed 1× in PBS and placed in starvation media (−FBS) for 6-18 hours depending upon cell line and treated 1 hour prior to harvesting with PI3K inhibitors as indicated alone or in combination with insulin 10 minutes prior to harvesting. Three-dimensional culture and dose response experiments of patient derived organoids were run as previously described. In brief, ˜1000 cells were plated in 10 ul of 1:1 matrigel to culture media in 96 well angiogenesis plates and allowed to solidify for 30 min at 37 degrees before 70 ul of culture media was added. Organoids were then treated in triplicate in a log scale dose response and CellTiter-Glo assay (Promega) was run at 96 hours to determine the IC50 values. Knockdown of insulin receptor was achieved using a doxycycline inducible shRNA strategy. For generation of miR-E shRNAs, 97-mer oligonucleotides were purchased (IDT Ultramers) coding for predicted shRNAs using an siRNA predictional tool Splash RNA (see website at splashrna.mskcc.org/).

For data set [5], the system named is HCT116 PTEN knockout (KO) cells. Nature of the data set: proliferation with PI3K inhibitors and insulin. Format: cell-based, Human. To be noted: insulin 10 ng/ml in presence of PI3K inhibitors GDC-0032, BYL-719.
The subject of data set [6] is BT-549 breast cancer cells. Put plainly: proliferation in minimal growth media with BKM120 and insulin. The data set is classed as cell-based, Human. To be noted: insulin 10 ng/ml.
Data set [7] has as its system ES272 Pik3ca mutant breast cancer allograft. Nature of the data set: Pik3ca mutant breast allografts, ketogenic diet, BYL-719 and exogenous insulin. The data set is classed as in vivo, mice. To be noted: 0.4 mU insulin 15 minutes after each dose of PI3K inhibitor. Here is the method: To further test whether the improved response to PI3K inhibitors while on a ketogenic diet is a consequence of lowering blood insulin levels, the inventors attempted to “rescue” the PI3K reactivation using exogenous insulin. A cohort of the mice bearing Pik3ca mutant breast allografts were treated with the combination of a ketogenic diet and BYL-719, and then given 0.4 mU of insulin 15 minutes after each dose of PI3K inhibitor (FIG. 4B).

For data set [8], the system named is PC-3 prostate adenocarcinoma cells. Nature of the data set: proliferation in minimal growth media with BKM120 and insulin. The data set is classed as cell-based. To be noted: insulin 10 ng/ml.
The next data set deals with KPC allografted tumors. Format: in vivo. To be noted: insulin added to ketogenic diet plus BYL-719.

pIC50: −log10 of the molar value.

Consider `Cc1nc(NC(=O)N2CCC[C@H]2C(N)=O)sc1-c1ccnc(C(C)(C)C(F)(F)F)c1` [Apelisib, Alpelisib], for which the “response of KPC allografts” value with KPC K8484 tumors (BYL-719 combined with metformin, SGLT2i or ketogenic diet, concordant with ability to reduce serum insulin) is “enhanced response of KPC allografts”. The drug efficacy entry in the data set with tumor models is given as “improved drug efficacy”.

For `Cc1c(CN2CCN(C(=O)[C@H](C)O)CC2)sc2c(N3CCOCC3)nc(-c3cnc(N)nc3)nc12` [Apitolisib], the drug efficacy entry in the data set with tumor models was “improved drug efficacy”.

For `Nc1cc(C(F)(F)F)c(-c2cc(N3CCOCC3)nc(N3CCOCC3)n2)cn1` [Buparlisib], the “growth of KPC allografts” value in the data set with KPC allografts is given as “more effective response on the growth of KPC allografts than either drug alone”. The “efficacy (survival)” value in [1] is recorded as “significantly enhanced”. Besides, in the data set on tumor models, the drug efficacy result was “improved drug efficacy”.

For orientation: pIC50 means −log10 of the IC50, conventionally taken in molar units. `Cc1ccc([C@@H]2OC(CO)[C@@H](O)C(O)C2O)cc1Cc1ccc(-c2ccc(F)cc2)s1` (some centres unmarked) [Conagliflozin, Canagliflozin]: the pIC50 at SGLT-2 was 8.66.

For `Cc1ccc([C@@H]2O[C@H](CO)[C@@H](O)[C@H](O)[C@H]2O)cc1Cc1ccc(-c2ccc(F)cc2)s1` [Conagliflozin, Canagliflozin], the overall survival result in the data set with KPC K8484 tumors (added to treatment with BYL-719, vs BYL-719 alone) is on record as “increases overall survival”. In addition, in data set [2], the “PI3K inhibitor-induced elevation in blood glucose (hyperglycemia)” value is listed as “decreased the resulting hyperglycemia”, the “insulin released in response to BKM120 (c-peptide)” value is reported as “reduced the total insulin that was released” and the “growth signaling through mTORC1 in the tumor (pS6)” value is recorded as “reduced signaling through mTORC1 in the tumor”.

For the molecule `COc1c(OCCCN2CCOCC2)ccc2c1N=C(NC(=O)c1cnc(N)nc1)N1CCN=C21` [Copanilisib, Copanlisib], in the data set with tumor models, the drug efficacy result is listed as “improved drug efficacy”.

Take `C[C@]1(O)C[C@@H](c2nc(-c3ccc4ccc(-c5ccccc5)nc4c3)c3c(N)nccn32)C1` [Linsitinib]: the negative-log IC50 (pIC50) with IGF1R/INSR was 7.46. Moreover, the “treatment efficacy (tumor volume)” value in data set [3] is “significantly improved”.

For the molecule `NC1(c2ccc(-c3nc4ccn5c(=O)[nH]nc5c4cc3-c3ccccc3)cc2)CCC1` [MK2206], in the data set with AKT1/2/3, the pIC50 was 8.10.

Turning to `CS(=O)(=O)N1CCN(Cc2cc3nc(-c4cccc5[nH]ncc45)nc(N4CCOCC4)c3s2)CC1` [Pictilisib], the drug efficacy entry in the data set with tumor models was “improved drug efficacy”.

For the molecule `Cc1nc(-c2cn3c(n2)-c2ccc(-c4cnn(C(C)(C)C(N)=O)c4)cc2OCC3)n(C(C)C)n1` [Taselisib], the “treatment efficacy (tumor volume)” value in data set [3] was “significantly improved”. Besides, in the data set with tumor models, the drug efficacy result is reported as “improved drug efficacy”.

Consider `CN(C)C(=N)NC(=N)N` [metformin, Metformin], for which, in data set [2], the “PI3K inhibitor-induced elevation in blood glucose (hyperglycemia)” value is “only minimal impact”, the “insulin released in response to BKM120 (c-peptide)” value is recorded as “only minimal impact” and the “growth signaling through mTORC1 in the tumor (pS6)” value is “only minimal impact”.

For insulin, the “growth (proliferation)” value in data set [4], in [6] and in data set [8] was “partially rescued” throughout. Also, in the data set on KPC cells (10 ng/ml insulin in continued presence of PI3K inhibitors), the “PI3K signaling (pAKT, pS6)” value is on record as “partially rescue PI3K signaling”. In addition, the cellular proliferation result with KPC cells (10 ng/ml insulin with BKM120 (1 uM)) was “partial recovery of cellular proliferation”. Further, the “proliferation (percent confluence)” value in data set [5] was “restore normal proliferation”. In [7], the “therapeutic benefit of ketogenic diet plus BYL-719” value is reported as “dramatically reduced the therapeutic benefit”. Moreover, in the data set with KPC allografted tumors, the tumor growth entry is “rescued tumor growth”.

Source of the values: patent US12324807B2, “Combination therapy for PI3K-associated disease or disorder” (Cornell University, priority 2018, dated 2025).
